Measured values published in article PMC6686156, “Discovery of Sustainable Drugs for Neglected Tropical Diseases: Cashew Nut Shell Liquid (CNSL)‐Based Hybrids Target Mitochondrial Function and ATP Production in Trypanosoma brucei” (Chemmedchem, 2019).

How the values were obtained:
[1] = system: T. b. brucei 427WT bloodstream trypomastigotes; assay: microbe, parasite or virus in culture; type: cell-based, Trypanosoma brucei brucei; details: Trypanosoma brucei, 72 h; bloodstream trypomastigotes; resazurin; 48 h + 24 h; n=4; read-out: EC50 T. b. b. 427WT
Experimental: (§1) Organisms and culture media: Only bloodstream trypomastigotes of T. b. brucei were used throughout this study. […] Parasites were cultured in vented flasks at 37 °C and 5 % CO2 atmosphere and they were passaged every 3 days. Bloodstream forms of T. congolense savannah‐type strain IL3000 were cultured in basal MEM medium, supplemented by 10 % fresh goat serum, 14 μL of β‐mercaptoethanol, 800 μL of 200 mM glutamine solution, and 10 mL of penicillin/streptomycin solution per liter of medium (pH 7.3).48 T. congolense were cultured in six‐well plates at 34 °C and 5 % CO2.
(§2) In brief, the assays were performed in 96‐well plates with 2×10^5 cells per well for T. b. brucei or 5×10^5 cells per well for T. congolense, in their respective culture media. First, 200 μL of test compounds’ solutions (400 μM, in T. brucei or T. congolense medium as appropriate) was added to the first well of each 12‐well row, from which doubling dilutions were conducted over one row per test compound. […] Fluorescence was detected using a FLUOstar Optima (BMG Labtech, Durham, NC, USA) at wavelength of 540 nm (excitation), 590 nm (emission). EC50 values were calculated by nonlinear regression using an equation for a sigmoidal dose–response curve with variable slope using Prism 5.0 (GraphPad Software Inc., San Diego, CA, USA).

T. b. brucei B48 = assay: microbe, parasite or virus in culture; type: cell-based, Trypanosoma brucei brucei
Experimental: as §1, §2

[2] = system: T. b. brucei aqp2/aqp3‐KO; assay: microbe, parasite or virus in culture; type: cell-based, Trypanosoma brucei brucei
Experimental: as §1, §2

T. congolense IL3000 WT = assay: In vitro drug susceptibility assay (resazurin), T. congolense; type: cell-based; details: Trypanosoma congolense, bloodstream forms, read-out: EC50 T. c. IL3000 WT
Experimental: as §1, §2

T. b. brucei ISMR1 = assay: In vitro drug susceptibility assay (resazurin), dyskinetoplastic ISMR1 strain; type: cell-based, Trypanosoma brucei brucei; details: isometamidium-resistant line
Experimental: as §1, §2

[3] = system: T. b. rhodesiense (STIB 900 strain); set-up: method as in earlier work; details: different resazurin protocol, ref 14a, read-out: IC50 (called EC50) against T. b. rhodesiense; cited from earlier work
L6 mammalian cells = system: L6 mammalian cells; set-up: method as in earlier work; details: versus T. b. rhodesiense STIB 900; ref 14a; cited from earlier work
[4] = system: T. b. brucei 427WT bloodstream trypomastigotes; assay: ATP assay on T. b. brucei (luciferin-luciferase); type: cell-based, Trypanosoma brucei brucei; details: oligomycin 2.0 μg/mL, positive control
Experimental: (§3) ATP assay on T. b. brucei and HFF cells: Changes in cellular ATP levels due to the exposure of trypanosomes to the test compounds (0.5×EC50) were monitored using the Molecular Probes ATP Determination Kit (A22066, Invitrogen Detection Technologies), based on the luciferin–luciferase bioluminescent enzymatic reaction. Bloodstream trypomastigote cultures of T. brucei s427WT were incubated with and without test compound, and, at each predetermined incubation time, 10^7 cells of each sample were transferred into a microfuge tube and centrifuged at 2000×g for 10 min at 4 °C. The pellet was washed twice with 1 mL of 50 mM Tris⋅HCl (pH 7.4) containing 0.1 mM DTT, and then resuspended in 200 μL of the same buffer. The cells were lysed by sonication on ice (twice for 10 s separated by 30 s), using a Soniprep 150 (MSE) at 8 μm amplitude. The samples were centrifuged at 10 000×g for 10 min at 4 °C and the supernatant was collected, instantly frozen in liquid nitrogen, and stored at −80 °C. Oligomycin (2.0 μg mL^−1) was used as positive control. ATP levels were quantified using the contents of the kit following the manufacturer's instructions; 90 μL of standard reaction solution was added to each well of a 96‐well plate and the background luminescence was recorded in a FLUOstar OPTIMA fluorimeter; 10 μL of each sample was then added to each well. The plate was incubated at 28 °C for 15 min and the luminescence was measured, including a standard curve with an ATP concentration ranging from 1 nM to 1 μM to allow the calculation of the ATP concentrations in each sample. The ATP content was measured at 0, 0.5, 1, 2, 4, 8 and 12 h of incubation with test sample.

HFF cells = assay: ATP assay on HFF cells; type: cell-based, human; details: 22 at 200 μM, oligomycin 2 μg/mL; 0, 4, 8 h
Experimental: as §3, with “same buffer. […] ATP levels” for “same buffer. The cells were lysed by sonication on ice (twice for 10 s separated by 30 s), using a Soniprep 150 (MSE) at 8 μm amplitude. The samples were centrifuged at 10 000×g for 10 min at 4 °C and the supernatant was collected, instantly frozen in liquid nitrogen, and stored at −80 °C. Oligomycin (2.0 μg mL^−1) was used as positive control. ATP levels”, “test sample. […]” for “test sample.”

Row | Structure (SMILES) | EC50 [1] | RF, resistance factor relative to WT (B48) (T. b. brucei B48; B48 versus 427WT) | EC50 (T. b. brucei B48; Trypanosoma brucei, read-out: EC50 T. b. b. B48) | EC50 ([2]; Trypanosoma brucei, read-out: EC50 T. b. b. aqp2/aq3‐KO) | RF, resistance factor relative to WT (aqp2/aqp3-KO) ([2]; aqp2/aqp3-KO versus 427WT) | EC50 (T. congolense IL3000 WT) | EC50 in ISMR1 relative to 427WT tested in parallel (T. b. brucei ISMR1) | IC50 [3] | selectivity index (SI) with respect to L6 mammalian cells (L6 mammalian cells) | effect on ATP levels relative to 20 and 22 [4] | effect on cellular ATP levels of HFF cells (HFF cells)
1 | O=C1C=C(Oc2ccccc2)C(=O)c2ccccc21 [Compound 4, 2‐phenoxynaphthalene‐1,4‐dione, reference compound] | 48.7 ± 0.8 µM | 1.3 | 63 ± 0.4 µM | 62.4 ± 0.8 µM | 1.3 | 108 ± 2 µM | did not show a significant increase in the EC50 values | 0.08 µM | 74 |  | 
2 | CC[C@H]1/C=C/C=C/C[C@@H](C)[C@H](O)[C@@](C)(O)C(=O)[C@@H](C)[C@H](O)[C@@H](C)C(=O)[C@@H](C)[C@H](O)[C@@H](C)/C=C/C(=O)O[C@@H]2[C@H](C)[C@H](CC1)O[C@]1(CC[C@H](C)[C@H](C[C@@H](C)O)O1)[C@H]2C [oligomycin, reference compound] |  |  |  |  |  |  |  |  |  | depressed the ATP levels even further | strong effect even at 4 h
